The text below walks through data of article PMC3995910, “Effect of Proline Analogues on Activity of Human Prolyl Hydroxylase and the Regulation of HIF Signal Transduction Pathway” (PLoS ONE, 2014).

This experiment concerns the target T1, Prolyl hydroxylase 3 (PHD3) (Homo sapiens, UniProt Q9H6Z9).
T1 construct: gene EGLN3; recombinant human PHD3 expressed in E. coli, ~45 kDa
The experiment in a line: fluorescence-based 2OG consumption assay (OPD derivatization), double-reciprocal kinetics. It counts as biochemical.

T1 sequence (Q9H6Z9 whole entry): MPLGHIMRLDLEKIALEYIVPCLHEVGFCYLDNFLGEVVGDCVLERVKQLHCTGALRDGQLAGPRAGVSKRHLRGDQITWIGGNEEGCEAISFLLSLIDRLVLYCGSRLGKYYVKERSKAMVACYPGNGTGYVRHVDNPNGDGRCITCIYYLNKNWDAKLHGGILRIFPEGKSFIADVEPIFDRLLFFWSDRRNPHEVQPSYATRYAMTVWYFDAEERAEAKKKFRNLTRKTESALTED

With `O=C(Nc1ccccc1NC(=O)[C@H]1CCCN1)[C@H]1CCCN1` [PA1], the Ki (commonly the dissociation constant of the complex between target and ligand, obtained from inhibition or displacement) came to 1090 nM.
As for `O=C(O)[C@H]1CCCN1C(=O)OCc1ccccc1` [PA2], the Ki stood at 2380 nM.
